Test system: Vesicular Stomatitis Virus

Polysorbate 80
virus inactivation by excipient: no appreciable virus inactivation occurred

Reference: patent US7655233B2 (priority 2005, dated 2010)
